Experimental data reported in patent publication US20160272635A1, “SUBSTITUTED DIHYDROPYRIDO[3,4-B]PYRAZINONES AS DUAL INHIBITORS OF BET PROTEINS AND POLO-LIKE KINASES” (BAYER PHARMA AKTIENGESELLSCHAFT, priority 2013, published 2016).
Where two headings read alike, the source gives them in different places.

Key:
MOLM-13 cell line = assay: MOLM-13 cell proliferation assay (alamarBlue); assay type: cell-based; details: Homo sapiens; MOLM-13 cells, 96 hours incubation, inhibition of cell proliferation
Experimental: In accordance with the invention, the substances were tested for their ability to inhibit the proliferation of the MOLM-13 cell linie (Deutsche Sammlung far Mikroorganismen and Zellkulturen [German Collection of Microorganisms and Cell Cultures], ACC 554). Cell viability was determined by means of the alamarBlue® reagent (Invitrogen) in a Victor X3 Multilabel Reader (Perkin Elmer). The excitation wavelength was 530 nm and the emission wavelength […].
The MOLM-13 cells were shown at a density of 4000 cells/well in 100 μl of growth medium on 96-well microtitre plates. After overnight incubation at 37° C., the fluorescence values (CI values) were determined. The plates were then treated with various substance dilutions and incubated at 37° C. for 96 hours. Subsequently, the fluorescence values were determined (CO values). For the data analysis, the CI values were subtracted from the CO values and the results were compared between cells which had been treated with various dilutions of the substance or only with buffer solution. The IC50 values (substance concentration needed for 50% inhibition of cell proliferation) were calculated therefrom.

Plk-1 = target: T1, Plk-1 (Homo sapiens, UniProt P53350); assay: Plk-1 enzyme assay (indirect HTRF kinase assay); assay type: biochemical
T1 construct: Recombinant fusion protein consisting of GST and Plk (kinase domain 33-345); MW 36 kDa; GST; made in house; host or cells: insect cells (Hi5)
Experimental: Recombinant fusion protein consisting of GST and Plk (kinase domain 33-345; MW 36 kDa, conc 0.8 μg/μl) expressed from insect cells (Hi5) and purified by glutathione Sepharose affinity chromatography and subsequent gel filtration (Superdex 75) is used for the kinase assay. Aliquots thereof are frozen in liquid nitrogen and stored at −80° C. and, after thawing, used only once.
The assay used is an indirect HTRF assay which employs the following materials and procedures. The substrate used for the kinase reaction is the biotinylated peptide Btn-Ahx-KKLNRTLSFAEPG-amide x TFA from Biosyntan, Sample No.: 6178.1 (C-terminus in amide form). This is an artificial sequence not derived from any known protein. 50 nl of the test compounds dissolved in 100% dimethyl sulphoxide (DMSO) (final concentrations: 0 μM and concentrations in the range of 0.001-20 μM) are pre-incubated with 2 μl Plk-1 enzyme working solution in working buffer [25 mM MgCl2; 1 mM DTT; 50 mM Hepes pH 7.0; 0.01% NP40; 1× Complete; 0.05% BSA] for 30 min. The kinase reaction is then initiated by addition of 3 μl of substrate solution [adenosine triphosphate (ATP) and 1.4 μM substrate peptide (biotin-Ttds-KKLNRTLSFAEPG-NH2)] in working buffer, and, after 30 min, stopped by addition of a stopper solution (100 mM EDTA, 100 mM Hepes pH 7.5, 800 mM potassium fluoride, 0.12% BSA, 0.4 μM SA-XLent (0.05 μM, from CIS bio international, Marcoule, France), Eu^3+ cryptate-conjugated rabbit anti-mouse IgG (1.5 nM; an anti-mouse IgG antibody labelled with europium cryptate from CIS bio international, Marcoule, France), 1 nM anti-phospho-serine kinase (a phospho-specific antibody from Upstate Biotechnology, Dundee, Scotland), and incubated at 4° C. overnight.
For the test at low ATP concentration, a 1.25 ng/μl Plk-1 working solution and 16.7 μM ATP are used, for the test at high ATP concentration, a 0.039 ng/μl Plk-1 working solution and 16.7 mM ATP are used.
The amount of phosphorylated substrate peptide is then determined by measuring the resonance energy transfer from europium-labelled antibody complex to streptavidine-XLent. To this end, the fluorescence emission at 620 nm and 665 nm is measured following excitation at 350 nm in an HTRF measuring instrument, e.g. Rubystar (BMG Labtechnologies, Offenburg, Germany) or Viewlux (Perkin-Elmer). The ratio of the emissions at 665 nm and at 620 nm is taken as a measure of the amount of phosphorylated substrate peptide. The data are normalized (enzyme reaction without inhibitor=0% inhibition, all other assay components, but no enzyme=100% inhibition), and IC50 values are calculated using a 4 parameter equation (minimum, maximum, IC50, Hill; Y=max+(min−max)/(1+(X/IC50)Hill)).

[1] = target: T2, BRD4 bromo domain 1 [BRD4(1)] (Homo sapiens, UniProt O60885); assay: BRD4(1)/acetylated peptide H4 binding assay (TR-FRET); details: inhibition of interaction between BRD4(1) and acetylated histone H4 peptide
T2 construct: N-terminally His6-tagged BRD4(1) (amino acids 67-152); made in house; host or cells: E. coli
From the text: To assess the BRD4(1) binding strength of the substances described in this application, the ability thereof to inhibit the interaction between BRD4(1) and acetylated histone H4 in a dose-dependent manner was quantified.
For this purpose, a time-resolved fluorescence resonance energy transfer (TR-FRET) assay was used, which measures the binding between N-terminally His6-tagged BRD4(1) (amino acids 67-152) and a synthetic acetylated histone H4 (Ac-H4) peptide with sequence GRGK(Ac)GGK(Ac)GLGK(Ac)GGAK(Ac)RHGSGSK-biotin. The recombinant BRD4(1) protein produced in-house according to Filippakopoulos et al., Cell, 2012, 149:214-231 was expressed in E. coli and purified by means of (Ni-NTA) affinity and (Sephadex G-75) size exclusion chromatography. The Ac-H4 peptide can be purchased, for example, from Biosyntan (Berlin, Germany).
In the assay, typically 11 different concentrations of each substance (0.1 nM, 0.33 nM, 1.1 nM, 3.8 nM, 13 nM, 44 nM, 0.15 μM, 0.51 μM, 1.7 μM, 5.9 μM and 20 μM) were analysed as duplicates on the same microtitre plate. For this purpose, 100-fold concentrated solutions in DMSO were prepared by serial dilutions (1:3.4) of a 2 mM stock solution into a clear, 384-well microtitre plate (Greiner Bio-One, Frickenhausen, Germany). From this, 50 n1 were transferred into a black test plate (Greiner Bio-One, Frickenhausen, Germany). The test was started by the addition of 2 μl of a 2.5-fold concentrated BRD4(1) solution (final concentration typically 10 nM in the 5 μl of reaction volume) in aqueous assay buffer [50 mM HEPES pH 7.5, 50 mM sodium chloride (NaCl), 0.25 mM CHAPS and 0.05% serum albumin (BSA)] to the substances in the test plate. This was followed by a 10-minute incubation step at 22° C. for the pre-equilibration of putative complexes between BRD4(1) and the substances.
The mixture was then incubated in the dark at 22° C. for one hour and then at 4° C. for at least 3 hours and for no longer than overnight. The formation of BRD4(1)/Ac-H4 complexes was determined by the measurement of the resonance energy transfer from the streptavidin-Eu cryptate to the anti-6His-XL665 antibody present in the reaction. For this purpose, the fluorescence emission was measured at 620 nm and 665 nm after excitation at 330-350 nm in a TR-FRET measuring instrument, for example a Rubystar or Pherastar (both from BMG Lab Technologies, Offenburg, Germany) or a Viewlux (Perkin-Elmer). The ratio of the emissions at 665 nm and at 622 nm was taken as an indicator of the amount of BRD4(1)/Ac-H4 complexes formed.
The data (ratios) obtained were normalized, with 0% inhibition corresponding to the mean from the measurements for a set of controls (typically 32 data points) in which all the reagents were present. In these, in place of test substances, 50 nl of DMSO (100%) were used Inhibition of 100% corresponded to the mean from the measurements for a set of controls (typically 32 data points) in which all the reagents except BRD4(1) were present. The IC50 was determined by regression analysis based on a 4-parameter equation (minimum, maximum, IC50, Hill; Y=Max+(Min−Max)/(1+(X/IC50)Hill).

[2] = 10 mM ATP (high ATP concentration), read-out: IC50 [Plk-1] (10 mM ATP)
[3] = 10 μM ATP (low ATP concentration), read-out: IC50 [Plk-1] (10 μM ATP)

T1 sequence (P53350 33-345): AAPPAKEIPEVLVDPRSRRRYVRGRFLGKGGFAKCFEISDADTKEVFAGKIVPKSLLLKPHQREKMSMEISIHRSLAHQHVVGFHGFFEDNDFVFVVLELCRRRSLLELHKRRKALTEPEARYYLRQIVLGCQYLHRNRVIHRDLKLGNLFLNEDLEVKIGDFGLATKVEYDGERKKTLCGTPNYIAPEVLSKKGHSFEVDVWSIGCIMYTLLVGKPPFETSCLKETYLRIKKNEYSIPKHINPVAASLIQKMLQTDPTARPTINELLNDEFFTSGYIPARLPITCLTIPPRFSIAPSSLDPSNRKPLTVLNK

| IC50 (MOLM-13 cell line) | IC50 (Plk-1; [2]) | IC50 [1] | IC50 (Plk-1; [3]) | SMILES |
| --- | --- | --- | --- | --- |
| 56 nM | 15 nM | 434 nM | 7 nM | CC[C@@H]1C(=O)N(C)c2cnc(Nc3ncc(C(=O)NC4CC4)cc3C)cc2N1C1CCCC1 [Example 13, 6-{[(2R)-1-Cyclopentyl-2-ethyl-4-methyl-3-oxo-1,2,3,4-tetrahydropyrido[3,4-b]pyrazin-7-yl]amino}-N-cyclopropyl-5-methylpyridine-3-carboxamide] |
| 77 nM | 22 nM | 496 nM | 13 nM | CC[C@@H]1C(=O)N(C)c2cnc(Nc3ncc(C(=O)N[C@@H]4CCCCNC4=O)cc3C)cc2N1C1CCCC1 [Example 15] |
| 55 nM | 14 nM | 539 nM | 8 nM | CC[C@@H]1C(=O)N(C)c2cnc(Nc3ncc(C(=O)NC4CCOCC4)cc3C)cc2N1C1CCCC1 [Example 17, 6-{[(2R)-1-Cyclopentyl-2-ethyl-4-methyl-3-oxo-1,2,3,4-tetrahydropyrido[3,4-b]pyrazin-7-yl]amino}-5-methyl-N-(tetrahydro-2H-pyran-4-yl)pyridine-3-carboxamide] |
| 42 nM | 7 nM | 649 nM |  | CC[C@@H]1C(=O)N(C)c2cnc(Nc3ncc(C(=O)NC4CCN(C)CC4)cc3C)cc2N1C1CCCC1 [Example 18, 6-[[(2R)-1-Cyclopentyl-2-ethyl-1,2,3,4-tetrahydro-4-methyl-3-oxopyrido[3,4-b]pyrazin-7-yl]amino]-5-methyl-N-(1-methyl-4-piperidinyl)pyridine-3-carboxamide] |

Further lines, the molecule ahead of its results:

| SMILES | IC50 (MOLM-13 cell line) | IC50 (Plk-1; [2]) | IC50 [1] | IC50 (Plk-1; [3]) |
| --- | --- | --- | --- | --- |
| CC[C@@H]1C(=O)N(C)c2cnc(Nc3ncc(C(=O)NCc4cccnc4)cc3OC)cc2N1C1CCCC1 [Example 12, 6-[[(2R)-1-Cyclopentyl-2-ethyl-1,2,3,4-tetrahydro-4-methyl-3-oxopyrido[3,4-b]pyrazin-7-yl]amino]-5-methoxy-N-(3-pyridinylmethyl)-3-pyridinecarboxamide] | 52 nM | 23 nM | 424 nM |  |
| CC[C@@H]1C(=O)N(C)c2cnc(Nc3ncc(C(=O)NC4CCN(C)CC4)cc3OC)cc2N1C1CCCC1 [Example 14, 6-[[(2R)-1-Cyclopentyl-2-ethyl-1,2,3,4-tetrahydro-4-methyl-3-oxopyrido[3,4-b]pyrazin-7-yl]amino]-5-methoxy-N-(1-methyl-4-piperidinyl)-3-pyridinecarboxamide] | 32 nM | 29 nM | 458 nM | 11 nM |
| CC[C@@H]1C(=O)N(C)c2cnc(Nc3ncc(C(=O)N[C@@H]4CCCCNC4=O)cc3OC)cc2N1C1CCCC1 [Example 16, 6-[[(2R)-1-Cyclopentyl-2-ethyl-1,2,3,4-tetrahydro-4-methyl-3-oxopyrido[3,4-b]pyrazin-7-yl]amino]-N-[(3R)-hexahydro-2-oxo-1H-azepin-3-yl]-5-methoxy-3-pyridinecarboxamide] | 77 nM | 22 nM | 525 nM |  |
| CC[C@@H]1C(=O)N(C)c2cnc(Nc3ncc(C4=NC(C)(C)CO4)cc3OC)cc2N1C1CCCC1 [Example 19, 1N-Cyclopentyl-7-[[5-(4,5-dihydro-4,4-dimethyl-2-oxazolyl)-3-methoxy-2-pyridinyl]amino]-(2R)-ethyl-4N-methyl-1,4-dihydropyrido[3,4-b]pyrazin-3(2H)-one] | 362 nM | 99 nM | 732 nM |  |
| CC[C@@H]1C(=O)N(C)c2cnc(Nc3ncc(C(=O)NC4CCCCC4)cc3OC)cc2N1C1CCCC1 [Example 20, N-Cyclohexyl-6-[[(2R)-1-cyclopentyl-2-ethyl-1,2,3,4-tetrahydro-4-methyl-3-oxopyrido[3,4-b]pyrazin-7-yl]amino]-5-methoxypyridine-3-carboxamide] | 101 nM | 35 nM | 878 nM |  |
